Laboratory results as given in the NIST ThermoML archive (doi:10.1021/je300530z).

Tests used:
[1] = 100 kPa, Liquid, Vibrating tube method
[2] = wn = mass fraction of the nth substance listed; details: Liquid, Vibrating tube method

CN(CCO)CCO [N-methyldiethanolamine]
[1]
Details	mass density [kg/m3]
293.15 K	1039.9
303.15 K	1032.4
313.15 K	1024.9
323.15 K	1017.2
333.15 K	1009.5
343.15 K	1001.7
353.15 K	993.9
363.15 K	986
373.15 K	978.28
383.15 K	970.22
393.15 K	962.03
403.15 K	953.71
413.15 K	945.29
423.15 K	936.81

CN(CCO)CCO [N-methyldiethanolamine] + O
mass density [kg/m3], [2]
Details	w1 = 0.5	w1 = 0.6	w1 = 0.7	w1 = 0.8
293.15 K, 101 kPa	1045.8	1052.6	1056.1	1055.5
303.15 K, 101 kPa	1039.6	1045.8	1048.8	1048.1
313.15 K, 101 kPa	1033	1038.6	1041.3	1040.5
323.15 K, 101 kPa	1026.1	1031.2	1033.6	1032.6
333.15 K, 101 kPa	1018.9	1023.6	1025.6	1024.6
343.15 K, 101 kPa	1011.4	1015.6	1017.4	1016.4
353.15 K, 101 kPa	1003.5	1007.4	1009	1007.9
363.15 K, 101 kPa	995.3	998.9	1000.4	999.3
373.15 K, 800 kPa	987	990.32	991.79	990.82
383.15 K, 800 kPa	978.16	981.18	982.65	981.74
393.15 K, 800 kPa	968.93	971.76	973.23	972.51
403.15 K, 800 kPa	959.28	962.08	963.68	963.09
413.15 K, 800 kPa	949.4	952.13	953.72	953.38
423.15 K, 800 kPa	939.06	941.91	943.63	943.53

OCCNCCO [diethanolamine] + O
mass density [kg/m3], [2]
Details	w1 = 0.5	w1 = 0.6	w1 = 0.7	w1 = 0.8
293.15 K, 101 kPa	1060.7	1073.1	1082.5	1089.6
303.15 K, 101 kPa	1055.5	1067.4	1076.5	1083.6
313.15 K, 101 kPa	1050	1061.4	1070.3	1077.4
323.15 K, 101 kPa	1044.1	1055.2	1064	1070.9
333.15 K, 101 kPa	1037.9	1048.6	1057.3	1064.2
343.15 K, 101 kPa	1031.4	1041.9	1050.5	1057.4
353.15 K, 101 kPa	1024.51	1034.7	1043.5	1050.5
363.15 K, 101 kPa	1017.38	1027.3	1036.1	1043.1
373.15 K, 800 kPa	1010.04	1020	1028.87	1035.98
383.15 K, 800 kPa	1002.15	1012.14	1020.89	1028.08
393.15 K, 800 kPa	994.94	1003.87	1012.73	1020.14
403.15 K, 800 kPa	985.63	995.45	1004.18	1012.1
413.15 K, 800 kPa	976.68	986.55	995.42	1003.23
423.15 K, 800 kPa	967.44	977.38	986.45	995.43
